We go through four molecules from patent US20230338574A1, “ANTIBODY-NANOPARTICLE COMPLEXES AND METHODS FOR MAKING AND USING THE SAME” (priority 2020, published 2023).

Experiment [1] concerns MDA-MB-231 tumor xenograft. In words: In vivo efficacy in MDA-MB-231 tumor xenograft. On the set-up: species or system female athymic nude mice. The settings on record: Kaplan Meier. The procedure:
Female athymic nude mice, 6 weeks of age, were purchased from Envigo Corporation.
Human breast cancer cell lines MDA-MB-231 were purchased from ATCC and were cultured and expanded in DMEM medium supplemented with 10% FBS, 100 units/ml of penicillin and 100 μg/ml of streptomycin at 37° C. in a 5% CO2 humidified environment for a period of 2-3 weeks before harvesting for implantation. Cell viability determined by Trypan blue dye exclusion assay was >90% before implantation. 4 million MDA-MB-231 cells in 100 μl of PBS were inoculated to the right upper flank of each mouse by s.c. injection.
Tumor volume measurement was started at day 25 after tumor cell inoculation and performed twice weekly. The longest longitudinal diameter as length and the widest transverse diameter as width were measured by using a digital caliper. Tumor volume (TV) was then calculated by the formula: TV=[length×(width)^2]/2 and were analyzed in Excel.
The treatment was started when average tumor size reached ˜400 mm^3.
Mice were euthanized when tumor size reached 2000 mm^3.
After tumor-bearing mice were randomized, 0.9% saline, anti-PDL1, Irinotecan 15, albumin bound non-toxic paclitaxel (NTP), free SN-38 at 7.5 and 15 mg/kg (SN38 7.5 and 15), albumin bound SN-38 at 7.5 and 15 mg/kg (Nab 7.5 and 15), anti-PDL1 plus SN38 Nab delivered at the same time in separate injections (PDL1+Nab15), or anti-PDL1 coated albumin bound SN-38 at 7.5 and 15 mg/kg (NIC 7.5 and NIC 15) were administered. Albumin bound SN-38 (Nab) and anti-PDL1 coated SN-38 Nab (NIC) were made as described above. Drugs were diluted in 0.9% saline and administered to the athymic nude mice in 100 μl by IV injections in the tail vein. SN-38 in all forms was given at 7.5 and 15 mg/kg in a single dose.
Raw data of tumor measurements (FIG. 7A-FIG. 7K) were analyzed in Excel. Tumor growth curves, day 7 tumor response and Kaplan-Meier survival curves were plotted using GraphPad Prism 8.0 software. Data from day 7 tumor response were compared using student's t-test. P values of less than 0.05 were considered significant (FIG. 8).
In MDA-MB-231 tumor xenograft model tumor responses were determined at day 7 using the equation: {([…])/tumor size day 0}*100. Differences in tumor response were determined by student's t-test in GraphPad Prism software 8.0. Percent change above the zero line indicates tumor growth, and below the zero line indicates tumor shrinking. […]
Kaplan Meier curves for the MDA-MB-231 xenotransplant model were generated in GraphPad Prism software 8.0 and median survival was determined to be 28, 34, 30, 24.5, 30, and 42.5 for the saline, anti-PDL1, Irinotecan 15, NTP, free SN38 7.5, and free SN38 15, respectively. […]

For experiment [2], the target named is T1, SN38:NTP Nab (albumin nanoparticles made with non-toxic paclitaxel derivative and SN38) (human, UniProt P02768 25-609).
T1 construct: also called SN38 Nab
The experiment in a line: zeta potential (Zetasizer), SN38:NTP:STI3031 NIC against SN38:NTP Nab.

In experiment [3] the target is nab-paclitaxel (Taxol) nanoparticles with SN38 (human) (UniProt P02768). The experiment in a line: zeta potential (Zetasizer), nanoparticles with 2, 4, 6 or 8 mg/ml antibody.

As to `CCc1c2c(nc3ccc(OC(=O)N4CCC(N5CCCCC5)CC4)cc13)-c1cc3c(c(=O)n1C2)COC(=O)[C@]3(O)CC` [Irinotecan, irinotecan], in experiment [1] (15 mg/kg, IV), the median survival amounted to 30.

Turning to `CCc1c2c(nc3ccc(O)cc13)-c1cc3c(c(=O)n1C2)COC(=O)[C@]3(O)CC` [SN38], the median survival in experiment [1] (7.5 mg/kg, single IV dose) was found to be 30; in experiment [1] (15 mg/kg, IV), 42.5.

Molecule “anti-PDL1: anti-PDL1 H6B1L-EM antibody (STI3031), HC/LC SEQ ID NO. 1/SEQ ID NO. 2” gave a median survival in experiment [1] (IV injection, dose not given) of 34.

B1: anti-PDL1 H6B1L-EM antibody (STI3031) (antibody, human IgG1, lambda, V domains shown)
VH: QMQLVQSGAEVKKPGSSVKVSCKASGGTFSSYAYSWVRQAPGQGLEWMGGIIPSFGTANYAQKFQGRVTITADESTSTAYMELSSLRSEDTAVYYCARGPIVATITPLDYWGQGTLVTVSS
VL: SYVLTQPPSVSVAPGKTATIACGGENIGRKTVHWYQQKPGQAPVLVIYYDSDRPSGIPERFSGSNSGNTATLTISRVEAGDEADYYCLVWDSSSDHRIFGGGTKLTVLG
notes: also called PDL1 antibody
Regarding B1, the binding result in experiment [2] is “binds”. Further, the antibody concentration at which zeta potential reaches its maximum in experiment [3] was 4 mg/mL.
